Experimental data: EPA's ToxValDB 9.5 (doi:10.2903/j.efsa.2011.1969)
In brackets after ≈: the same amount, converted by molar mass.

Tests used:
Tagia sp. = conditions: acute; duration: 14 days; mortality
Coturnix japonica = conditions: reproduction developmental
Daphnia magna = conditions: chronic/long-term; duration: 21 days; reproduction
Folsomia candida = conditions: chronic/long-term; duration: 28 days
Colinus virginianus = conditions: acute; oral; mortality
Anas platyrhynchos = conditions: short-term; oral; feed; mortality
Bibionidae = conditions: chronic/long-term; duration: 27 days
Apis mellifera = conditions: acute; duration: 48 hours; oral; unspecified; mortality
Typhlodromus pyri = assay: LR50; higher = less toxic; conditions: not reported; mortality
Aphidius rhopalosiphi = assay: LR50; higher = less toxic; conditions: not reported; mortality

CCNc1nc(Cl)nc(NC(C)(C)C)n1 [Terbutylazine]
LC50 (Tagia sp.): > 283 mg/kg
NOEL (Coturnix japonica): 13.8 mg/kg-day
NOEC (Daphnia magna): 0.019 mg/L
LD50 (Rattus norvegicus; acute, oral, mortality): < 1590 mg/kg
NOAEL (Rattus norvegicus; chronic): 3.3 mg/kg-day
NOEC (Folsomia candida): 42.2 mg/kg
LD50 (Colinus virginianus): 1240 mg/kg-day
LC50 (Anas platyrhynchos): > 395 mg/kg-day
NOEC (Bibionidae): 0.5 mg/L
LD50 (Apis mellifera): > 22.6 µg/piece
LC50 (Oncorhynchus mykiss; acute, duration: 96 hours, mortality): 2.2 µg/mL (≈ 9.58 µM)
NOEC (Oncorhynchus mykiss; chronic/long-term, duration: 90 days, time to swim up): 0.09 mg/L
LR50 (Typhlodromus pyri): > 750 g/ha
LR50 (Aphidius rhopalosiphi): > 750 g/ha
